Laboratory results published in paper PMC10367067, “A Series of Non-Oxido V^IV Complexes of Dibasic ONS Donor Ligands: Solution Stability, Chemical Transformations, Protein Interactions, and Antiproliferative Activity” (Inorganic Chemistry, 2023).
Read-outs that look alike come from different tables or passages of the source.

Assays:
[1] = system: HT-29 (colon cancer) cells; assay: MTT assay, HT-29 cells; assay type: cell-based; details: for IC50: 48 h of exposure, mean ± SD; for selectivity index (SI), HT-29: NIH-3T3 vs HT-29, 48 h
Method: (§1) HT-29 (colon cancer), HeLa (cervical cancer), and NIH-3T3 (mouse embryonic fibroblasts) cells were maintained in DMEM supplemented with 10% FBS, penicillin–streptomycin solution in a humidified (95% humidity) CO2 incubator (5% CO2). Thereafter, cells were harvested from the logarithmic phase and seeded into a 96-well plate at a concentration of 8 × 10^4 cells per well. After overnight seeding, cells were treated with different concentrations (2.5, 5, 10, 20, and 50 μM) of the tested ligands and vanadium complexes (H2L^1–4 and 1–4) for 48 h. The compounds’ stock solutions were prepared in DMSO. DMEM was used to prepare the final working concentration of the compounds, so that the final amount of DMSO is less than 2%. The effect of the complexes on the viability of the cells was evaluated through MTT dye reduction assay by measuring the optical density at 595 nm.[93] DMSO alone, used to dissolve the complexes, was also employed for the control group treatment.

[2] = system: HeLa (cervical cancer) cells; assay: MTT assay, HeLa cells; assay type: cell-based; details: for IC50: 48 h of exposure, mean ± SD; for selectivity index (SI), HeLa: NIH-3T3 vs HeLa, 48 h
Method: as §1

[3] = system: NIH-3T3 (mouse embryonic fibroblasts) cells; assay: MTT assay, NIH-3T3 normal cells; assay type: cell-based; details: 48 h of exposure, mean ± SD
Method: as §1

[4] = system: HeLa (cervical cancer) cells; parameters: method as in PMID 36598160, doi:10.1002/aoc.6082; details: identical experimental conditions; cited from earlier work
[5] = system: HT-29 (colon cancer) cells; parameters: method as in PMID 36598160, doi:10.1002/aoc.6082; details: identical experimental conditions; cited from earlier work
Solubility observations = assay type: physicochemical
Excerpt: The non-oxido vanadium(IV) complexes (1–4) were synthesized by the reaction of tridentate dibasic ONS donor dithiocarbazates H2L^1–4 with [V^IVO(acac)2] in a 2:1 molar ratio in CH3CN medium (Scheme 1). […] They are soluble in polar aprotic solvents like DMSO, DMF, DCM, THF, and CH3CN and are partially soluble in aqueous media. The solid-state characterization of all compounds was done through elemental analysis, FTIR, and also with single-crystal X-ray diffraction studies of 1–3, while the solution phase characterization was carried out through UV–vis, ESI-MS spectrometry, and EPR spectroscopy. Details of all the characterizations are described in the following sections.
(§2) EPR spectra were recorded 24 h after the dissolution of the most soluble compound, [V^IV(L^1)2] (1), in DMSO and in an aqueous solution in phosphate buffer at pH 7.4 (Figure 8). […] The spectrum in DMSO is very similar to that in CH2Cl2 (cfr. traces in Figures 6 and 8), with the coexistence of fac (1a) and mer (1b) isomers.

[6] = Solution stability (ESI-MS, EPR); assay type: physicochemical
Method: The stability of all complexes was established in water containing solvents through UV–vis, ESI mass spectrometry, and NMR and EPR spectroscopy.
The aged solutions in MeOH/H2O 90/10 (v/v) were diluted in CH3CN and analyzed by ESI-MS (concentration 50 μM). For all complexes, the most important species remained those detected at t = 0 h, i.e., the non-oxido V^IV complexes [V^IV(L^1–4)2]; the V^V species [V^V(L^1–4)2]^+, derived from the oxidation of the previous one, and [V^VO2(L^1–4)]^− were also detected. At these experimental conditions, the non-oxido V^IV complexes seem to be stable after 24 h with a slight increase in the oxidation process, as indicated by the increment of the relative amount of […] (Figure S14). […] This was considered during the docking studies.
as §2

HT-29 cells = assay: Annexin V-FITC/PI apoptosis assay by flow cytometry; assay type: cell-based; details: 48 h, control 9%
Method: The apoptotic population induced by complexes 1 and 2 in HT-29 cells was evaluated using Annexin V-FITC Apoptosis Detection Kit (Abgenex) by a flow cytometer (BD Accuri C6 flow cytometer; BectoneDickinson).[125] HT-29 cells (3 × 10^5 cells/well) were cultured in a 6-well plate for 24 h. After the cells were adhered, different concentrations (5 and 10 μM) of the tested complexes were treated and incubated for further 48 h. Subsequently, the cells were collected by trypsinization and then suspended in 1X binding buffer. Finally, the suspension was stained with 5 μL of Annexin V and PI at room temperature and incubated for 15 min in the dark. Then, the samples were immediately analyzed under a BD Accuri C6 flow cytometer.

BSA = target: T1, BSA (Bos taurus, UniProt P02769); assay: Fluorescence quenching titration of BSA with the complexes; assay type: binding, bovine; details: room temperature
T1 construct: purchased Sigma-Aldrich
T1 sequence (P02769 25-607): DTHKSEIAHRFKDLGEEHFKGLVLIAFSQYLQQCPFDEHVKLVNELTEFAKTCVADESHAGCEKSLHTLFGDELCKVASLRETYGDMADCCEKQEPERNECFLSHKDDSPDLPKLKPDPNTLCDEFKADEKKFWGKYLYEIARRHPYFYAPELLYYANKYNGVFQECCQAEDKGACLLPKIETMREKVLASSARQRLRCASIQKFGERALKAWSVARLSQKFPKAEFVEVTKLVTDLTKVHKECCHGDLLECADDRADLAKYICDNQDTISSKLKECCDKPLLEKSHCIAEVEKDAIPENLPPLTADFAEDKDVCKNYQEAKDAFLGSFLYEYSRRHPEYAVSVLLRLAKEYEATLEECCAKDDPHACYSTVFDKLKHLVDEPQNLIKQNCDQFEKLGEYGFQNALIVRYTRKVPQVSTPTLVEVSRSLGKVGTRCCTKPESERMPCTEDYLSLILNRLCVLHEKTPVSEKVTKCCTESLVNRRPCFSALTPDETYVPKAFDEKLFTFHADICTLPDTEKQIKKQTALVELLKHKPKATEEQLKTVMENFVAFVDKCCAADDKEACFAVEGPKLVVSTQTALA
Method: The interaction between complexes 1–4 and BSA was studied using fluorescence quenching spectroscopy on a PerkinElmer LS 55 instrument. The instrumental response was corrected by means of a correction function provided by the manufacturer. The fluorescence experiments were carried out at room temperature and are steady-state measurements. Electronic absorption spectra were measured on a PerkinElmer Lambda35.
Fatty acid free BSA stock solution was prepared in PBS buffer (10 mM, pH 7.4), and the concentration was determined spectrophotometrically considering the extinction coefficient 44,309 M^–1 cm^–1 at 280 nm.[107] Stock solutions of the complexes (ca. 8 × 10^–4 M) were prepared in DMSO and further diluted (1:10) immediately before running the experiments. […] Fluorescence emission spectra were measured at room temperature with λex = 295 nm between 310 and 500 nm. Fluorescence spectra containing the same amount of complex but no BSA were recorded and subtracted from each corresponding emission spectrum of the mixtures. […] UV–vis spectra were measured for each solution, and the absorbance at excitation and emission wavelengths were used to make corrections for inner filter effects and reabsorption.[108],[109]
The Stern–Volmer equation was used to fit the fluorescence quenching data[109] […]

Row | SMILES | IC50 ([1]; Homo sapiens, HT-29) [µM] | selectivity index (SI), HT-29 [1] | IC50 ([2]; Homo sapiens, HeLa) [µM] | selectivity index (SI), HeLa [2] | IC50 ([3]; Mus musculus, NIH3T3) [µM] | IC50 [4] [µM] | IC50 [5] [µM] | behaviour in minimum essential medium (MEM, no FBS) (Solubility observations; MEM instead of water) | solubility in phosphate buffer (Solubility observations; pH 7.4) | stability by EPR in DMSO ([6]; DMSO, after 24 h) | stability by EPR in aqueous solution ([6]; phosphate buffer pH 7.4, after 24 h) | apoptotic cells (sum of early and late apoptosis) (HT-29 cells; 5 μM) [%] | apoptotic cells (sum of early and late apoptosis) (HT-29 cells; 10 μM) [%] | IC50 [1] [µM] | IC50 [2] [µM] | IC50 [3] [µM] | n (equivalent binding sites of BSA) (BSA; PBS pH 7.4) | KBC (binding constant) (BSA; PBS pH 7.4, from double logarithm plot)
1 | CCN(CC)c1ccc(/C=N/NC(=S)SC)c(O)c1 [H2L^1] | 14.7 ± 0.6 | 1.6 | 15.7 ± 1.9 | 1.5 | 23.5 ± 0.6 | – | – | – | – | – | – | – | – | – | – | – | – | –
2 | N.N.[Cl][Pt][Cl] [cisplatin] | – | – | – | – | – | 25.5 ± 0.8 | 32.7 ± 0.6 | – | – | – | – | – | – | – | – | – | – | –
3 | CCN(CC)c1ccc2c(c1)[O][V]1([O]c3cc(N(CC)CC)ccc3C=NN=C(SC)[S]1)[S]C(SC)=NN=C2 (centres unmarked) [complex 1, [V^IV(L^1)2]] | – | 1.2 | – | 0.9 | – | – | – | precipitation was evident from the beginning | not completely soluble | the pattern remains substantially unaltered, even though a significant decrease in the spectral intensity is detected | the resonances of [V^IV(L^1)2] are clearly visible | 15.8 | 48.8 | 7.2 ± 0.6 | 9.3 ± 0.2 | 8.7 ± 1.1 | 0.89 | 2.6 × 10^4
